# Active and inactive are the calls of the source. Where a SMILES comes first, the peptide text is derived from it. The star is where a group is joined. Boc = CC(C)(C)OC(=O)*; OtBu = CC(C)(C)O*
# Test system: INS1
# Assay: INS-1E survival protection against cytokine death – cell-based, luminescence, retest, dose response (AID 449756);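 further: cell death triggered by IL-1 beta plus TNF-alpha plus IFN-gamma mixture; protective hits raise ATP signal compared with cytokine alone wells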
# Format: functional
# Conditions: Rattus norvegicus
row,Compound,AC50
1,Cc1nnc(N/N=C/c2cc([N+](=O)[O-])c(N3CCC(C)CC3)cc2N2CCC(C)CC2)n1N,2.92 µM (active)
2,CC1CC(=O)N(c2ccc(Br)cc2)C(=O)C1,> 260 µM (inactive)
3,Cc1cccc(NC2=C/C(=N/S(=O)(=O)c3cccs3)c3ccccc3C2=O)c1,0.803 µM (active)
4,O=C(NC1CCCC1)c1cc(COc2ccc3ncccc3c2)on1,3.29 µM (active)
5,O=C(O)CCCC(=O)Nc1ccc(C(=O)NCc2cccnc2)cc1,2.39 µM (active)
6,Cc1ccc(C(C)C)c(OCC(O)CN2CCc3ccccc3C2)c1 (stereo not drawn),7.17 µM (active)

# Biological target: T1, Rac GTPase-activating protein 1 (Homo sapiens, UniProt Q9H0H5)
# T1 sequence (Q9H0H5 whole entry): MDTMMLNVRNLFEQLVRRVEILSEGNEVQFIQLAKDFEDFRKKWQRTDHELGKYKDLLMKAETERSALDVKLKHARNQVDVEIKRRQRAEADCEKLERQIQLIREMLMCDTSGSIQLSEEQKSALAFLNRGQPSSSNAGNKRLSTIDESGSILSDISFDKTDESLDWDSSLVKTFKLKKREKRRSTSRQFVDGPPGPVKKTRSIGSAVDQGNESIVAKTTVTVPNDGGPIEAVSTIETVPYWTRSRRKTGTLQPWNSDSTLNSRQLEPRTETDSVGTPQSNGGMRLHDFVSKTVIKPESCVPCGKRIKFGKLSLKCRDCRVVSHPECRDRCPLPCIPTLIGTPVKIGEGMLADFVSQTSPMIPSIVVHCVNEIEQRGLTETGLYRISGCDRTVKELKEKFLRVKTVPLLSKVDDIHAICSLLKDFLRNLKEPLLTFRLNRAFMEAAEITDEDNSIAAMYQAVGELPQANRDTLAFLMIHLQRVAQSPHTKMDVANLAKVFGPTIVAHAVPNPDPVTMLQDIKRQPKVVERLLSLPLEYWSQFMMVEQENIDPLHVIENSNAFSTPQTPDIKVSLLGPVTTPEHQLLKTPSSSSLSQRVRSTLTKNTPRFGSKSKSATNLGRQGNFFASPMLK
# Assay: blockers of MgcRacGAP-driven Rac1 GTP hydrolysis – biochemical, ADP Hunter fluorescence, primary and confirmatory, confirmation (AID 624330)
# Format: functional
# Conditions: not given
row,Compound,IC50
1,Nc1cc(Br)c(N)c(Br)c1,13.5 µM (active)
2,CCOCCCN=C(S)N1CCN(Cc2ccc3c(c2)OCO3)CC1,152 µM (active)
3,CC(C)[C@H](N[C@@H](C)c1ccccc1)c1c(O)ccc2ccccc12,16.8 µM (active)
4,Cn1c(=O)[nH]c(=O)c2c1nc(S)n2Cc1ccccc1,26.9 µM (active)
5,COc1cc(CN2CCC(C(=O)N3CCCC(C)C3)CC2)cc(Br)c1O (stereo not drawn),191 µM (active)
6,CN(C)c1ccc(NC(=O)COC(=O)c2ccc3c(c2)OCO3)cc1,63.3 µM (active)
7,Cc1nc(N)sc1-c1ccccc1,71.9 µM (active)

# Test system: not listed separately
# Assay: Luminescence Cell-Based Dose Retest to Confirm Inhibitors of Cancer Stem Cells. [Related pubchem assays (depositor defined):AID2717, AID2721]
# Format: functional
# Conditions: Homo sapiens
row,Compound,AC50
1,Cc1cccc(NC2=C/C(=N/S(=O)(=O)c3cccs3)c3ccccc3C2=O)c1,0.835 µM (active)

# Biological target: T2, Heat shock factor protein 1 (Mus musculus, UniProt P38532)
# T2 sequence (P38532 whole entry): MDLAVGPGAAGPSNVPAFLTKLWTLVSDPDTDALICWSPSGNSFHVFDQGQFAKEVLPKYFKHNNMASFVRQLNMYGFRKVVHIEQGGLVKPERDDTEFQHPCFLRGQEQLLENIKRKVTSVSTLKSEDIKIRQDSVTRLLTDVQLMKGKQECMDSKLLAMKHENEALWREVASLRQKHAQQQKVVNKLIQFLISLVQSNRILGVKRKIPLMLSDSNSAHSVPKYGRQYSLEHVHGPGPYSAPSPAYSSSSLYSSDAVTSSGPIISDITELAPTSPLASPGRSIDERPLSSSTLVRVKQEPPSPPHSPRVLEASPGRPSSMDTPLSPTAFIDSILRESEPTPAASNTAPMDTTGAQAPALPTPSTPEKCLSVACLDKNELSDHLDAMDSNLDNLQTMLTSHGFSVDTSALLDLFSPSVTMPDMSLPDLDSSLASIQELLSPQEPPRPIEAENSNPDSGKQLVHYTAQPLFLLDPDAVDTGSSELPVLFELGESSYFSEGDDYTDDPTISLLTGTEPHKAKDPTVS
# Assay: enhancement of HSF1-driven luciferase signal – cell-based, NIH3T3, luminescence, dose retest, confirmation (AID 435004);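 further: stress induced by proteasome inhibitor MG132 added 30 min after compound; luciferase reporter driven by HSF1 response element in NIH3T3 cells; actives raise luminescence as potentiators of the MG132 stress response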
# Format: functional
# Conditions: not given
row,Compound,EC50
1,COc1cc(-c2nnn(CC#N)n2)ccc1OCc1ccccc1,90.9 µM (active)
2,CC1CC(=O)N(c2ccc(Br)cc2)C(=O)C1,> 260 µM (inactive)
3,Cn1c(SCc2ccccc2C#N)nc2ccccc2c1=O,> 260 µM (inactive)
4,O=[N+]([O-])c1ccc(N2CCCCCC2)c([N+](=O)[O-])c1,> 260 µM (inactive)
5,Cc1nc(SCC(=O)c2ccccc2)c(C#N)c(-c2ccco2)c1C(=O)NCc1ccco1,99.7 µM (active)
6,CCc1ccc(NC(=O)CSC2=C(C#N)C(c3ccc4c(c3)OCO4)CC(=O)N2)cc1 (stereo not drawn),> 260 µM (inactive)
7,O=C(Cc1ccc([N+](=O)[O-])cc1)N1N=C(C2CC2)CC1(O)C(F)(F)F (stereo not drawn),> 260 µM (inactive)
8,COC(=O)C(Cc1ccc(O)cc1)NC(=O)C(CC(=O)OC(C)(C)C)NC(=O)OC(C)(C)C (stereo not drawn) (Boc-Asp(OtBu)-Tyr-OMe; configuration not given here),> 260 µM (inactive)
9,CCN(CC)C(=O)Oc1ccc(Br)cc1C(=O)Nc1ccc(F)cc1F,> 260 µM (inactive)
10,CC1SC(c2ccc(Cl)cc2)NC1=O (stereo not drawn),> 260 µM (inactive)
11,Cc1ccc(-c2cc(C(F)(F)F)c(C#N)c(SCC(=O)O)n2)cc1,> 260 µM (inconclusive)
12,Cc1ccc(OC(=O)c2ccc(C)c(C)c2)cn1,> 260 µM (inactive)
13,N#CC(CO)(Cc1ccc(OC(F)F)cc1)c1nc2ccccc2[nH]1 (stereo not drawn),> 260 µM (inactive)
14,O=C(CNS(=O)(=O)c1ccc(Br)s1)NCc1ccccc1,> 260 µM (inactive)
